In assay [1] the target is Receptor-interacting serine/threonine-protein kinase 3 (Homo sapiens, UniProt Q9Y572). As to the kind of experiment: Inhibition of recombinant full length human RIPK3 expressed in baculovirus infected Sf9 insect cells using MBP as substrate in presence of [gamma-33P]ATP.
Another assay has as its system U-251. As to the kind of experiment: Cytotoxicity against human U251 cells assessed as cell growth at 10 uM after 48 hrs by SRB assay relative to control. The assay is classed as functional. To be noted: U-251, 48 h, read-out: Activity. In general terms: Sulforhodamine B stains cellular protein and so reports cell mass.
Another assay has as its system SN12C. As to the kind of experiment: Cytotoxicity against human SN12C cells assessed as cell growth at 10 uM after 48 hrs by SRB assay relative to control. The assay is classed as functional. The conditions noted are these: read-out: Activity.
The test system of another assay is RPMI-8226. As to the kind of experiment: Cytotoxicity against human RPMI8226 cells assessed as cell growth at 10 uM after 48 hrs by SRB assay relative to control. It counts as functional. The conditions noted are these: RPMI-8226, 48 h, read-out: Activity.
Another assay deals with 786-0. The assay can be described thus: Cytotoxicity against human 786-O cells assessed as cell growth at 10 uM after 48 hrs by SRB assay relative to control. The assay is classed as functional. The conditions noted are these: 786-0, 48 h, read-out: Activity.
The subject of a further assay is SK-MEL-5. As to the kind of experiment: Cytotoxicity against human SK-MEL-5 cells assessed as cell growth at 10 uM after 48 hrs by SRB assay relative to control. The assay is classed as functional. To be noted: SK-MEL-5, 48 h, read-out: Activity.
Assay [2] addresses Cyclin-dependent kinase 5/CDK5 activator 1 (Homo sapiens, UniProt Q00535). As to the kind of experiment: Inhibition of recombinant full length human CDK5/p25 expressed in bacteria using histone H1 as substrate in presence of [gamma-33P]ATP.
In assay [3] the target is Glycogen synthase kinase-3 (Sus scrofa, UniProt B2LUN4+I6LNT8). As to the kind of experiment: Inhibition of domestic porcine brain full length GSK-3alpha/beta using GS-1 as substrate in presence of [gamma-33P]ATP. Further details: species or system Sus scrofa domesticus.
The next assay has as its system OVCAR-5. The assay can be described thus: Cytotoxicity against human OVCAR5 cells assessed as cell growth at 10 uM after 48 hrs by SRB assay relative to control. The conditions noted are these: OVCAR-5, 48 h, read-out: Activity. The assay is classed as functional.
The subject of a further assay is SK-MEL-28. The assay can be described thus: Cytotoxicity against human SK-MEL-28 cells assessed as cell growth at 10 uM after 48 hrs by SRB assay relative to control. The assay is classed as functional. To be noted: SK-MEL-28, 48 h, read-out: Activity.
Assay [4] deals with T1, Serine/threonine-protein kinase haspin (Homo sapiens, UniProt Q8TF76).
T1 sequence (Q8TF76 whole entry): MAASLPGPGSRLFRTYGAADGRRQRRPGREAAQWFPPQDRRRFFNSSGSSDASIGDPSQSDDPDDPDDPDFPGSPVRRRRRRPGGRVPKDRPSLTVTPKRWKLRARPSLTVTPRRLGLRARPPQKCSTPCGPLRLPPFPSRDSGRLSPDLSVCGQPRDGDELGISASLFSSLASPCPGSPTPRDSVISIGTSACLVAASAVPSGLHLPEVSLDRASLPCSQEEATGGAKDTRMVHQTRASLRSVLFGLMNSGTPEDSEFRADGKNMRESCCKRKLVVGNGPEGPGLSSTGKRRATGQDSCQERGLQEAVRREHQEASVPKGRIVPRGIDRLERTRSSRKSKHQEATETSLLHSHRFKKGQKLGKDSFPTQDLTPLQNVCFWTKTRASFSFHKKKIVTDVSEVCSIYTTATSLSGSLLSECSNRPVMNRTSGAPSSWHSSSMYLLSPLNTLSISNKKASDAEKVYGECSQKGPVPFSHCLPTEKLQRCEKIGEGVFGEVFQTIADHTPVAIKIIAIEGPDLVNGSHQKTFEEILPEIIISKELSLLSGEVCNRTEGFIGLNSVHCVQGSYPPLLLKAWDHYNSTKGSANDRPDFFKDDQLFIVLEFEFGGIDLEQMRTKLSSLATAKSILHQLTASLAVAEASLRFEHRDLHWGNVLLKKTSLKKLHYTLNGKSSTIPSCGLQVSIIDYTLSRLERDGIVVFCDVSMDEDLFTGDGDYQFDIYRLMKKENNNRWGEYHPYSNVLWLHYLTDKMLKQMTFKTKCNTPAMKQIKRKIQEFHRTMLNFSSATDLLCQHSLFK
As to the kind of experiment: Inhibition of recombinant human haspin kinase domain expressed in bacteria using histone H3 (1 to 21 residues) peptide as substrate in presence of [gamma-33P]ATP.

The next assay relates to Hs-578T. The assay can be described thus: Cytotoxicity against human Hs 578T cells assessed as cell growth at 10 uM after 48 hrs by SRB assay relative to control. The conditions noted are these: read-out: Activity. The assay is classed as functional.
Another assay has as its system HCC 2998. As to the kind of experiment: Cytotoxicity against human HCC2998 cells assessed as cell growth at 10 uM after 48 hrs by SRB assay relative to control. The assay is classed as functional. The conditions noted are these: HCC 2998, 48 h, read-out: Activity.
Assay [5] has as its target Dual specificity tyrosine-phosphorylation-regulated kinase 1A (Rattus norvegicus) (UniProt Q63470). The assay can be described thus: Inhibition of recombinant rat DYRK1A kinase domain expressed in bacteria assessed as residual activity at 10 uM using KKISGRLSPIMTEQ as substrate in presence of [gamma-33P]ATP.
For a further assay, the system named is HCT-15. As to the kind of experiment: Cytotoxicity against human HCT15 cells assessed as cell growth at 10 uM after 48 hrs by SRB assay relative to control. It counts as functional. To be noted: HCT-15, 48 h, read-out: Activity.
A further assay deals with A549. The assay can be described thus: Cytotoxicity against human A549 cells assessed as cell growth at 10 uM after 48 hrs by SRB assay relative to control. The assay is classed as functional. The conditions noted are these: A549, 48 h, read-out: Activity.
Assay [6] can be described thus: Inhibition of domestic porcine brain full length […] using RRKHAAIGSpAYSITA as substrate in presence of [gamma-33P]ATP. Further details: species or system Sus scrofa domesticus.
The target in assay [7] is CDK9/cyclin T1 (Homo sapiens) (UniProt O60563+P50750). The assay can be described thus: Inhibition of recombinant full length human CDK9/cyclin T expressed in baculovirus infected Sf9 insect cells assessed as residual activity at 10 uM using YSPTSPSYSPTSPSYSPTSPSKKKK as substrate in presence of [gamma-33P]ATP.
The next assay relates to RXF 393. The assay can be described thus: Cytotoxicity against human RXF393 cells assessed as cell growth at 10 uM after 48 hrs by SRB assay relative to control. The assay is classed as functional. The conditions noted are these: RXF 393, 48 h, read-out: Activity.
For assay [8], the target named is CDK2/Cyclin A2 (Homo sapiens) (UniProt P24941+P20248). As to the kind of experiment: Inhibition of full length human CDK2/cyclin A assessed as residual activity at 10 uM using histone H1 as substrate in presence of [gamma-33P]ATP. The assay is classed as protein-complex assay.
Another assay relates to UACC-257. The assay can be described thus: Cytotoxicity against human UACC257 cells assessed as cell growth at 10 uM after 48 hrs by SRB assay relative to control. The assay is classed as functional. To be noted: UACC-257, 48 h, read-out: Activity.

Receptor-interacting serine/threonine-protein kinase 3, sequence (Q9Y572 whole entry): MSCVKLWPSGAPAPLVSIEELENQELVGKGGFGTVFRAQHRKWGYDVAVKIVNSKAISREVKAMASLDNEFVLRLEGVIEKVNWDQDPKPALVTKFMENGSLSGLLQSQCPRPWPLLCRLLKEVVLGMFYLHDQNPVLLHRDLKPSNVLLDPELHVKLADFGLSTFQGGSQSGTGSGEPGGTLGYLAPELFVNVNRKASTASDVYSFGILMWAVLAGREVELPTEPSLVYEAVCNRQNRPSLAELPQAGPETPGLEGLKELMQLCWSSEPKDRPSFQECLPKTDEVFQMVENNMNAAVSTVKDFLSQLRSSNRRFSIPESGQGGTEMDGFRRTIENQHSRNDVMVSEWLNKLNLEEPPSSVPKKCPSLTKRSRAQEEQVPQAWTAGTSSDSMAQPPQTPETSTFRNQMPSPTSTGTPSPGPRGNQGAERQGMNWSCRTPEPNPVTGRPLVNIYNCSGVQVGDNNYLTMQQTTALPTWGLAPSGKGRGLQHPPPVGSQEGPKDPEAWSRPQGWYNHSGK
Cyclin-dependent kinase 5/CDK5 activator 1, sequence (Q00535 whole entry): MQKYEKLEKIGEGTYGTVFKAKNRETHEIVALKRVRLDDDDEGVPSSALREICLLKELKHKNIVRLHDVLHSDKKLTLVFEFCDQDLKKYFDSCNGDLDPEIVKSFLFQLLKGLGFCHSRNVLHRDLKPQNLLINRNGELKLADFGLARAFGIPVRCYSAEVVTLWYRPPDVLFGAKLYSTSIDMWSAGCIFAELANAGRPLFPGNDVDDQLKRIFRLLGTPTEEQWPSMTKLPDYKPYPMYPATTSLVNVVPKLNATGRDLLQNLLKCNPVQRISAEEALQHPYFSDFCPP
Cyclin-dependent kinase 5/CDK5 activator 1, sequence (Q15078 whole entry, further chain): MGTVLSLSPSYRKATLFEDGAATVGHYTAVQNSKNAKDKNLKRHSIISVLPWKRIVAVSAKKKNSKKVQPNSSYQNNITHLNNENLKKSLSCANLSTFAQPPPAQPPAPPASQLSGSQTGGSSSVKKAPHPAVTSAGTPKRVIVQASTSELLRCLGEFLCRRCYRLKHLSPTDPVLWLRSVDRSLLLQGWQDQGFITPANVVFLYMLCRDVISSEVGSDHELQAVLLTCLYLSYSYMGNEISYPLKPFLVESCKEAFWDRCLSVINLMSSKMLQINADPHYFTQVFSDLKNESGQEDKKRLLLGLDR

`CC(C)n1cc(C2=C(c3cn(C)c4ccccc34)C(=O)N(O)C2=O)c2ccccc21`: the IC50 (usually the concentration needed to halve the response being measured) in assay [1] was above 10 µM; in assay [2], above 10 µM; in assay [3] it was 0.2 µM; in [4] it was above 10 µM; in assay [6], above 10 µM. Moreover, the growth at 10 µM in the assay on U-251 was found to be 98.8%; with SN12C it was 95.2%; with RPMI-8226, 68.3%; in the assay with 786-0, 86.5%; in the assay on SK-MEL-5, 76.2%; with OVCAR-5, 90.3%. Moreover, the growth at 10 µM worked out at 112% in the assay with SK-MEL-28; 91.2% in the assay with Hs-578T; 110% in the assay with HCC 2998; 96.9% in the assay on HCT-15; 97.1% with A549; 89.2% in the assay on RXF 393. Moreover, the Activity in assay [5] was 54%; in assay [7], -7%; in assay [8] it was 23%.

`Cn1cc(C2=C(c3cn(CCCCCC(=O)O)c4ccccc34)C(=O)N(O)C2=O)c2ccccc21`: the IC50 was above 10 µM in [1]; above 10 µM in [2]; 3.2 µM in assay [3]; above 10 µM in [4]; above 10 µM in assay [6]. In addition, the growth at 10 µM with U-251 was determined as 102%; in the assay with SN12C it was 95.2%; in the assay with RPMI-8226 it was 96.8%; in the assay with 786-0 it was 96.3%; with SK-MEL-5, 97.8%; in the assay on UACC-257, 102%. In addition, the growth at 10 µM was 96.3% in the assay with OVCAR-5; 106% with SK-MEL-28; 102% in the assay with Hs-578T; 110% with HCC 2998; 96.5% in the assay with HCT-15; 94.6% in the assay on A549. The growth at 10 µM with RXF 393 worked out at 111%. Also, the values for the Activity in assay [5], in [7] and in assay [8] were 22%, 15% and 36%, respectively.

On to `CC(C)n1cc(C2=C(c3c[nH]c4ccccc34)C(=O)N(O)C2=O)c2ccccc21`, for which the IC50 in assay [1] is above 10 µM; in assay [2], above 10 µM; in assay [3], 1.5 µM; in [4], above 10 µM; in assay [6], above 10 µM. Besides, the growth at 10 µM was 100% with U-251; 101% with SN12C; 56.9% in the assay on RPMI-8226; 77.9% in the assay on 786-0; 98.5% with SK-MEL-5; 105% with OVCAR-5. Moreover, the growth at 10 µM was 116% in the assay with SK-MEL-28; 111% in the assay on Hs-578T; 105% in the assay on HCC 2998; 99.9% in the assay on HCT-15; 102% in the assay on A549; 100% in the assay with RXF 393. The figures for the Activity in [5], in assay [7] and in [8] were 73%, 44% and 71%, respectively.

As to `Cn1cc(C2=C(c3c[nH]c4ccccc34)C(=O)N(O)C2=O)c2ccccc21`, the IC50 in assay [1] was above 10 µM; in [2], above 10 µM; in [3], 0.2 µM; in [4] it was above 10 µM; in [6], above 10 µM. The growth at 10 µM with U-251 was 98.5%; in the assay on SN12C, 97.8%; in the assay on RPMI-8226, 51.7%; with 786-0 it was 82%; in the assay with SK-MEL-5, 72%; in the assay on OVCAR-5 it was 95%. Further, the growth at 10 µM in the assay on SK-MEL-28 was found to be 92%; with Hs-578T, 96.3%; with HCC 2998, 89.9%; in the assay on HCT-15, 74.8%; with A549 it was 91.9%; in the assay with RXF 393, 86.3%. Also, the Activity is 46% in assay [5], 19% in [7] and 77% in assay [8].

`O=C(O)CCCCCn1cc(C2=C(c3c[nH]c4ccccc34)C(=O)N(O)C2=O)c2ccccc21`: the IC50 in [1] was above 10 µM; in assay [2] it was above 10 µM; in assay [3], 0.75 µM; in [4], above 10 µM; in [6], above 10 µM. The growth at 10 µM with U-251 turned out to be 102%; with SN12C, 105%; in the assay with RPMI-8226, 101%; with 786-0, 93%; with SK-MEL-5, 93.9%; with UACC-257, 111%. The growth at 10 µM in the assay on OVCAR-5 came to 106%; in the assay with SK-MEL-28 it was 111%; with Hs-578T, 103%; in the assay on HCC 2998 it was 119%; in the assay on HCT-15, 97.3%; with A549, 98.2%. In addition, the growth at 10 µM with RXF 393 amounted to 101%. Also, the Activity in assay [5] was found to be 24%; in assay [7], 19%; in [8], 66%.

As to `Cn1cc(C2=C(c3cn(C)c4ccccc34)C(=O)N(O)C2=O)c2ccccc21`, the IC50 in [1] is above 10 µM; in [2] it was above 10 µM; in [3], 3 µM; in assay [4] it was above 10 µM; in assay [6], above 10 µM. The growth at 10 µM with U-251 turned out to be 91.4%; in the assay with SN12C, 94.5%; in the assay on RPMI-8226, 79.3%; with 786-0, 103%; in the assay on SK-MEL-5, 92.8%; with UACC-257, 88.3%. Also, the growth at 10 µM was 105% in the assay with OVCAR-5; 107% in the assay with SK-MEL-28; 95.8% in the assay on Hs-578T; 106% with HCC 2998; 99.9% in the assay on HCT-15; 87.8% with A549. Besides, in the assay with RXF 393, the growth at 10 µM was determined as 82.8%. Also, the Activity amounted to 81% in [5], 38% in assay [7] and 83% in assay [8].

The record behind these values is ChEMBL document CHEMBL4229455, “Synthesis and anticancer activity of novel bisindolylhydroxymaleimide derivatives with potent GSK-3 kinase inhibition” (Bioorg Med Chem, 2018).
